Values after ≈ are worked out from the molar mass of the structure shown.
Tests used:
Type in all cases: functional
SR = assay: Anticancer activity against Homo sapiens (human) SR cells after 48 hr by SRB assay
HCC 2998 = assay: Growth inhibition of Homo sapiens (human) HCC2998 cells at 10 uM after 48 hr by SRB assay; conditions: HCC 2998, 48 h, read-out: GI
Hs-578T = assay: Growth inhibition of Homo sapiens (human) Hs 578T cells at 10 uM after 48 hr by SRB assay; conditions: read-out: GI
UO-31 = assay: Growth inhibition of Homo sapiens (human) UO31 cells at 10 uM after 48 hr by SRB assay; conditions: UO-31, 48 h, read-out: GI
TK-10 [1] = assay: Growth inhibition of Homo sapiens (human) TK10 cells at 10 uM after 48 hr by SRB assay; conditions: TK-10, 48 h, read-out: GI
Candida albicans = assay: Antimicrobial activity against Candida albicans DSM 70014 after 48 hr by two-fold serial broth dilution method; conditions: DSM 70014, 48 h
Malme-3M [2] = assay: Anticancer activity against Homo sapiens (human) MALME-3M cells after 48 hr by SRB assay
LOX IMVI = assay: Anticancer activity against Homo sapiens (human) LOXIMVI cells after 48 hr by SRB assay
U-251 [3] = assay: Anticancer activity against Homo sapiens (human) U251 cells after 48 hr by SRB assay; conditions: U-251, 48 h
SF-295 [4] = assay: Anticancer activity against Homo sapiens (human) SF295 cells after 48 hr by SRB assay; conditions: SF-295, 48 h
SW-620 = assay: Anticancer activity against Homo sapiens (human) SW620 cells after 48 hr by SRB assay; conditions: SW-620, 48 h
COLO 205 = assay: Anticancer activity against Homo sapiens (human) COLO205 cells after 48 hr by SRB assay; conditions: COLO 205, 48 h
NCI-H522 = assay: Anticancer activity against Homo sapiens (human) NCI-H522 cells after 48 hr by SRB assay; conditions: NCI-H522, 48 h
NCI-H322M = assay: Anticancer activity against Homo sapiens (human) NCI-H322M cells after 48 hr by SRB assay
NCI-H23 = assay: Anticancer activity against Homo sapiens (human) NCI-H23 cells after 48 hr by SRB assay; conditions: NCI-H23, 48 h
EKVX = assay: Anticancer activity against Homo sapiens (human) EKVX cells after 48 hr by SRB assay
Staphylococcus aureus = assay: Antimicrobial activity against Staphylococcus aureus DSM 1104 after 48 hr by two-fold serial broth dilution method; conditions: DSM 1104, 48 h
TK-10 [5] = assay: Anticancer activity against Homo sapiens (human) TK10 cells after 48 hr by SRB assay; conditions: TK-10, 48 h
SN12C = assay: Anticancer activity against Homo sapiens (human) SN12C cells after 48 hr by SRB assay
RXF 393 = assay: Anticancer activity against Homo sapiens (human) RXF393 cells after 48 hr by SRB assay; conditions: RXF 393, 48 h
CAKI-1 = assay: Anticancer activity against Homo sapiens (human) CAKI-1 cells after 48 hr by SRB assay; conditions: CAKI-1, 48 h
ACHN = assay: Anticancer activity against Homo sapiens (human) ACHN cells after 48 hr by SRB assay
OVCAR-4 = assay: Anticancer activity against Homo sapiens (human) OVCAR4 cells after 48 hr by SRB assay; conditions: OVCAR-4, 48 h
OVCAR-3 = assay: Anticancer activity against Homo sapiens (human) OVCAR3 cells after 48 hr by SRB assay; conditions: OVCAR-3, 48 h
SK-MEL-28 = assay: Anticancer activity against Homo sapiens (human) SK-MEL-28 cells after 48 hr by SRB assay; conditions: SK-MEL-28, 48 h
Bacillus subtilis = assay: Antimicrobial activity against Bacillus subtilis ATCC 6633 after 48 hr by two-fold serial broth dilution method; conditions: ATCC 6633, 48 h
Malme-3M [6] = assay: Growth inhibition of Homo sapiens (human) MALME-3M cells at 10 uM after 48 hr by SRB assay; conditions: read-out: GI
U-251 [7] = assay: Growth inhibition of Homo sapiens (human) U251 cells at 10 uM after 48 hr by SRB assay; conditions: U-251, 48 h, read-out: GI
SF-295 [8] = assay: Growth inhibition of Homo sapiens (human) SF295 cells at 10 uM after 48 hr by SRB assay; conditions: SF-295, 48 h, read-out: GI
[9] = read-out: LC50 (the source's name)

What does the source list for `COc1ccc(OC)c(/C=C/c2nnc(Nc3ccc(Cl)cc3)o2)c1`?
GI50 (SR): 48.2 µM; TGI (SR): > 100 µM; CC50 (SR; [9]): > 100 µM; inhibition of growth at 10 µM (HCC 2998): 44.6%; inhibition of growth at 10 µM (Hs-578T): 93.1%; inhibition of growth at 10 µM (UO-31): 95%; inhibition of growth at 10 µM (TK-10 [1]): 60.9%; MFC (Candida albicans): 50 µg/mL (≈ 140 µM); MIC (Candida albicans): 50 µg/mL (≈ 140 µM); GI50 (Malme-3M [2]): 9.87 µM; TGI (Malme-3M [2]): 52.4 µM; CC50 (Malme-3M [2]; [9]): > 100 µM; GI50 (LOX IMVI): 7.91 µM; TGI (LOX IMVI): > 100 µM; CC50 (LOX IMVI; [9]): > 100 µM; GI50 (U-251 [3]): 3.81 µM; TGI (U-251 [3]): 14.3 µM; CC50 (U-251 [3]; [9]): 47.6 µM; GI50 (SF-295 [4]): 6.15 µM; TGI (SF-295 [4]): 64.5 µM; CC50 (SF-295 [4]; [9]): > 100 µM; GI50 (SW-620): 18.3 µM; TGI (SW-620): > 100 µM; CC50 (SW-620; [9]): > 100 µM; GI50 (COLO 205): 16.6 µM; TGI (COLO 205): > 100 µM; CC50 (COLO 205; [9]): > 100 µM; GI50 (NCI-H522): 7.13 µM; TGI (NCI-H522): 83.7 µM; CC50 (NCI-H522; [9]): > 100 µM; GI50 (NCI-H322M): 30.5 µM; TGI (NCI-H322M): > 100 µM; CC50 (NCI-H322M; [9]): > 100 µM; GI50 (NCI-H23): 21.7 µM; TGI (NCI-H23): > 100 µM; CC50 (NCI-H23; [9]): > 100 µM; GI50 (EKVX): 40.5 µM; TGI (EKVX): > 100 µM; CC50 (EKVX; [9]): > 100 µM; MBC (Staphylococcus aureus): 50 µg/mL (≈ 140 µM); MIC (Staphylococcus aureus): 50 µg/mL (≈ 140 µM); GI50 (TK-10 [5]): 7.4 µM; TGI (TK-10 [5]): 83.2 µM; CC50 (TK-10 [5]; [9]): > 100 µM; GI50 (SN12C): 4.21 µM; LC50 (SN12C): > 100 µM; TGI (SN12C): > 100 µM; GI50 (RXF 393): 2.71 µM; LC50 (RXF 393): 56.1 µM; TGI (RXF 393): 7.92 µM; GI50 (CAKI-1): 6.02 µM; TGI (CAKI-1): > 100 µM; CC50 (CAKI-1; [9]): > 100 µM; GI50 (ACHN): 3.29 µM; TGI (ACHN): 19.9 µM; CC50 (ACHN; [9]): > 100 µM; GI50 (OVCAR-4): 2.44 µM; TGI (OVCAR-4): 6.76 µM; CC50 (OVCAR-4; [9]): > 100 µM; GI50 (OVCAR-3): 3.55 µM; LC50 (OVCAR-3): > 100 µM; TGI (OVCAR-3): 15.9 µM; GI50 (SK-MEL-28): 26.8 µM; LC50 (concentration killing 50% of cells) (SK-MEL-28): > 100 µM; TGI (SK-MEL-28): > 100 µM; MBC (Bacillus subtilis): 100 µg/mL (≈ 279 µM); MIC (Bacillus subtilis): 100 µg/mL (≈ 279 µM); inhibition of growth at 10 µM (Malme-3M [6]): 58.5%; inhibition of growth at 10 µM (U-251 [7]): 58.2%; inhibition of growth at 10 µM (SF-295 [8]): 53.1%

From ChEMBL document CHEMBL3046389, “Synthesis and biological evaluation of novel hydroquinone dimethyl ethers as potential anticancer and antimicrobial agents” (2013)
